# Data from patent US20240270762A1, “PENICILLIN-BINDING PROTEIN INHIBITORS” (priority 2021, published 2024).
# pEC50: −log10 of the molar value. Where two headings read alike, the source gives them in different places.
# Experiments:
# P. aeruginosa CDC-0054 = assay: microbe, parasite or virus in culture; assay type: cell-based; conditions: Pseudomonas aeruginosa, CDC0054, read-out: Minimum inhibitory concentration, P. aeruginosa CDC-0054
# P. aeruginosa ATCC 27853 = assay: microbe, parasite or virus in culture; assay type: cell-based; conditions: Pseudomonas aeruginosa, ATCC27853, read-out: Minimum inhibitory concentration, P. aeruginosa ATCC 27853
# A. baumannii PBP1a = target: T1, A. baumannii PBP1a (Acinetobacter baumannii, UniProt A0ABX6CK30); assay: Bocillin-FL competition binding via gel filtration, A. baumannii PBP1a; conditions: competition binding assay using Bocillin-FL via gel filtration; read-out: A. baumannii PBP1a Potency
# T1 sequence (A0ABX6CK30 1-851): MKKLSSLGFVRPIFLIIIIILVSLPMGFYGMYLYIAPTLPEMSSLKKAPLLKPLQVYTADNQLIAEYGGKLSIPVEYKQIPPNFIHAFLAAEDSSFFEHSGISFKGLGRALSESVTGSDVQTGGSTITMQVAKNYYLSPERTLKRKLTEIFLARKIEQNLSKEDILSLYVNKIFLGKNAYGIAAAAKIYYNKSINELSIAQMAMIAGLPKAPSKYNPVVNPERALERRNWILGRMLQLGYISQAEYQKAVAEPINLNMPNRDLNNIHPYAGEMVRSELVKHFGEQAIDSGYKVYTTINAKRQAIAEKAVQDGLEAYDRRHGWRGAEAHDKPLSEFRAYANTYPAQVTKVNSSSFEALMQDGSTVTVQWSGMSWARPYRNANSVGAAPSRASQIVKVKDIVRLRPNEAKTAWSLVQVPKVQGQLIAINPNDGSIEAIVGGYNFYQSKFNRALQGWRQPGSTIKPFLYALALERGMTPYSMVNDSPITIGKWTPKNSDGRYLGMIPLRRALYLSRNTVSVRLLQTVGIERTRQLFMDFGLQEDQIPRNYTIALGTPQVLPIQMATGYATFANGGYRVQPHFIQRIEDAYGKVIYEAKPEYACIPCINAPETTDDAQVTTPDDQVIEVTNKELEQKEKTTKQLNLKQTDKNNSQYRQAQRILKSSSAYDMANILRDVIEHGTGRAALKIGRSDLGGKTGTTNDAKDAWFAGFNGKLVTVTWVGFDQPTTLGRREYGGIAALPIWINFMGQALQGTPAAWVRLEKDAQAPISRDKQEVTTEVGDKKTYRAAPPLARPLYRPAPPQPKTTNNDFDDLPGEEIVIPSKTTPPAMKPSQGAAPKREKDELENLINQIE
# Method in brief: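 Competitive equilibrium binding with Bocillin-FL reporter: PBP pre-incubated with inhibitor dilutions, Bocillin-FL added, 15 min incubation. Labelled enzyme isolated by size-exclusion spin plates, fluorescence measured; EC50 obtained by fitting bound fraction against inhibitor concentration with a Hill-coefficient model.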
# A. baumannii 1258916 = assay: microbe, parasite or virus in culture; assay type: cell-based, Acinetobacter baumannii
# A. baumannii ATCC 17978 = assay: microbe, parasite or virus in culture; assay type: cell-based; conditions: Acinetobacter baumannii
# A. baumannii CDC-0033 = assay: microbe, parasite or virus in culture; assay type: cell-based; conditions: Acinetobacter baumannii
# P. aeruginosa ATCC 35151 = assay: microbe, parasite or virus in culture; assay type: cell-based; conditions: Pseudomonas aeruginosa, ATCC35151, read-out: Minimum inhibitory concentration, P. aeruginosa ATCC 35151
# [1] = tested on: B. thailandensis ATCC 700388; assay: microbe, parasite or virus in culture; assay type: cell-based; conditions: Burkholderia thailandensis, ATCC700388, read-out: Minimum inhibitory concentration (MIC), B. thailandensis ATCC 700388
# P. aeruginosa CDC-0095 = assay: microbe, parasite or virus in culture; assay type: cell-based; conditions: Pseudomonas aeruginosa, CDC0095, read-out: Minimum inhibitory concentration, P. aeruginosa CDC-0095
# [2] = tested on: B. humptydooensis ATCC BAA-2767; assay: microbe, parasite or virus in culture; assay type: cell-based; conditions: Burkholderia humptydooensis, ATCCBAA2767, read-out: Minimum inhibitory concentration (MIC), B. humptydooensis ATCC BAA-2767
# P. aeruginosa CDC-0090 = assay: microbe, parasite or virus in culture; assay type: cell-based; conditions: Pseudomonas aeruginosa, CDC0090, read-out: Minimum inhibitory concentration, P. aeruginosa CDC-0090
# [3] = Acinetobacter baumannii, 1258916, read-out: MIC, A. baumannii 1258916
# [4] = ATCC17978, read-out: MIC, A. baumannii ATCC 17978
# [5] = CDC0033, read-out: MIC, A. baumannii CDC-0033
# [6] = Acinetobacter baumannii, 1258916, read-out: Minimum inhibitory concentration (MIC), A. baumannii 1258916
# [7] = ATCC17978, read-out: Minimum inhibitory concentration (MIC), A. baumannii ATCC 17978
# [8] = CDC0033, read-out: Minimum inhibitory concentration (MIC), A. baumannii CDC-0033
SMILES,MIC (P. aeruginosa CDC-0054),MIC (P. aeruginosa ATCC 27853),pEC50 (A. baumannii PBP1a),MIC (A. baumannii 1258916; [3]),MIC (A. baumannii ATCC 17978; [4]),MIC (A. baumannii CDC-0033; [5]),MIC (P. aeruginosa ATCC 35151),MIC [1],MIC (P. aeruginosa CDC-0095),MIC [2],MIC (P. aeruginosa CDC-0090),MIC (A. baumannii 1258916; [6]),MIC (A. baumannii ATCC 17978; [7]),MIC (A. baumannii CDC-0033; [8])
"O=C(O)c1c(F)ccc2c1OB(O)[C@@H](NC(=O)[C@H](NC(=O)N1CCN(C3CCN(C(=O)Nc4ccc(F)c(O)c4)CC3)C1=O)c1cc(F)c(O)c(O)c1Cl)C2 (single isomer, unassigned) [Example 449]",< 1 µg/mL,< 1 µg/mL,> 5.00,< 1 µg/mL,< 1 µg/mL,< 1 µg/mL,< 1 µg/mL,< 1 µg/mL,< 1 µg/mL,2 to 4 µg/mL,< 1 µg/mL,,,
"O=C(O)c1c(F)ccc2c1OB(O)[C@@H](NC(=O)[C@H](NC(=O)N1CCN(C3CCN(C(=O)Nc4ccc(O)c(O)c4Cl)CC3)C1=O)c1ccc(P(=O)(O)O)cc1)C2 (single isomer, unassigned) [Example 497]",< 1 µg/mL,2 to 4 µg/mL,> 5.00,,,,< 1 µg/mL,< 1 µg/mL,32 to 64 µg/mL,< 1 µg/mL,8 to 16 µg/mL,< 1 µg/mL,< 1 µg/mL,< 1 µg/mL
"O=C(O)c1c(F)ccc2c1OB(O)[C@@H](NC(=O)[C@H](NC(=O)N1CCN(C3CCN(C(=O)c4cc(O)c(F)c(O)c4F)CC3)C1=O)c1cc(F)c(O)c(O)c1Cl)C2 (single isomer, unassigned) [Example 444]",< 1 µg/mL,< 1 µg/mL,> 5.00,< 1 µg/mL,< 1 µg/mL,< 1 µg/mL,< 1 µg/mL,< 1 µg/mL,< 1 µg/mL,< 1 µg/mL,< 1 µg/mL,,,
"O=C(O)c1c(F)ccc2c1OB(O)[C@@H](NC(=O)[C@H](NC(=O)N1CCN(C3CCN(C(=O)c4cc(O)c(O)c(Cl)c4)CC3)C1=O)c1ccc(P(=O)(O)O)cc1)C2 [Example 496, (R)-3-((R)-2-(3-(1-(3-chloro-4,5-dihydroxybenzoyl)piperidin-4-yl)-2-oxoimidazolidine-1-carboxamido)-2-(4-phosphonophenyl)acetamido)-7-fluoro-2-hydroxy-3,4-dihydro-2H-benzo[e][1,2]oxaborinine-8-carboxylic acid]",< 1 µg/mL,< 1 µg/mL,> 5.00,,,,< 1 µg/mL,< 1 µg/mL,8 to 16 µg/mL,< 1 µg/mL,< 1 µg/mL,< 1 µg/mL,< 1 µg/mL,< 1 µg/mL
"O=C(O)c1c(F)ccc2c1OB(O)[C@@H](NC(=O)[C@H](NC(=O)N1CCN(C3CCN(C(=O)Nc4cccc(O)c4)CC3)C1=O)c1cc(F)c(O)c(O)c1Cl)C2 [Example 445, (R)-3-((R)-2-(2-chloro-5-fluoro-3,4-dihydroxyphenyl)-2-(3-(1-((3-hydroxyphenyl)carbamoyl)piperidin-4-yl)-2-oxoimidazolidine-1-carboxamido)acetamido)-7-fluoro-2-hydroxy-3,4-dihydro-2H-benzo[e][1,2]oxaborinine-8-carboxylic acid]",< 1 µg/mL,< 1 µg/mL,> 5.00,< 1 µg/mL,< 1 µg/mL,2 to 4 µg/mL,< 1 µg/mL,< 1 µg/mL,< 1 µg/mL,< 1 µg/mL,< 1 µg/mL,,,
"O=C(O)c1c(F)ccc2c1OB(O)[C@@H](NC(=O)[C@H](NC(=O)N1CCN(C3CCN(C(=O)Nc4c(F)ccc(O)c4F)CC3)C1=O)c1cc(F)c(O)c(O)c1Cl)C2 (single isomer, unassigned) [Example 454]",< 1 µg/mL,2 to 4 µg/mL,> 5.00,< 1 µg/mL,< 1 µg/mL,2 to 4 µg/mL,< 1 µg/mL,< 1 µg/mL,2 to 4 µg/mL,< 1 µg/mL,2 to 4 µg/mL,,,
